Assay results from publication PMC6766848, “Inhibition of Pancreatic α-amylase by Resveratrol Derivatives: Biological Activity and Molecular Modelling Evidence for Cooperativity between Viniferin Enantiomers” (Molecules, 2019).

Target: T1, Porcine pancreatic α-amylase (Sus scrofa, UniProt P00690)
T1 construct: purchased Sigma-Aldrich (Milan, Italy)
T1 sequence (P00690 16-511): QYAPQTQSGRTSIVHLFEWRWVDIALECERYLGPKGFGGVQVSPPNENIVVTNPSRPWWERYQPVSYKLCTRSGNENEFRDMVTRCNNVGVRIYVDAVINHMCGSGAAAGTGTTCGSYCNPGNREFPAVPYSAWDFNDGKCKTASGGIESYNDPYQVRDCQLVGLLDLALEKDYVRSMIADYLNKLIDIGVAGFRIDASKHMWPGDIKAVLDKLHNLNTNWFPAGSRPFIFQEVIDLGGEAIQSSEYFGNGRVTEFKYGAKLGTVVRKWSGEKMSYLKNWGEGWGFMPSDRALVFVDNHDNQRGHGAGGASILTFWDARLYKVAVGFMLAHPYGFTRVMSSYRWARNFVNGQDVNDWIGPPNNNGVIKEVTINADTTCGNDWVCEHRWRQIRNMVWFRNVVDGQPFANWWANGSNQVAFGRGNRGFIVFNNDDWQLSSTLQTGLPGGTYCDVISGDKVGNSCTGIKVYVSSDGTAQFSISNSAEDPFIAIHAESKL
Experiment: Pancreatic α-amylase inhibition (modified K-AMYLSD kit, p-nitrophenyl-α-D-maltoheptaoside substrate)
Format: biochemical
Details: for inhibition at 10000 µM: 10 mM final concentration; for Hill cooperativity coefficient (n^H) / Ki: three-parameter Hill equation fit, inhibitor zero to 0.1 mM; for Ki: read-out: Ki^app
Protocol: The monomeric and dimeric stilbenoids described above were tested for their ability to inhibit the enzyme α-amylase, using acarbose as a reference compound. The method used to evaluate the enzyme activity relies on a two-step procedure. In a first step, α-amylase acts on a modified p-nitrophenyl-α-D-maltoheptaoside, releasing products that may be hydrolyzed by an excess α-glucosidase present in the assay mixture, therefore allowing spectrophotometric quantitation of the released p-nitrophenolate anion.
Porcine pancreatic α-amylase [EC 3.2.1.1] was from Sigma-Aldrich (Milan, Italy). Activity was monitored by using the K-AMYLSD kit from Megazyme (Bray, Ireland), with modifications. An aliquot of α-amylase (0.03 mL, 0.1 μM in 50 mM phosphate buffer, pH 6.8) was added to 0.120 mL of 50 mM phosphate buffer, pH 6.8, in a microtiter plate well. The investigated compounds where then added as methanolic solutions (0.03 mL) of appropriate concentration. The reaction was started by adding 0.02 mL of the substrate solution provided with the kit, resulting in a final concentration of 0.4 μM substrate. The kit-provided substrate solution also contained an excess of thermostable bacterial α-glucosidase, that is required for the release of the p-nitrophenolate anion from the p-nitrophenyl glucosides produced by the activity of α-amylase on the chemically modified maltoheptaoside. At appropriate times, the reaction was stopped by adding 0.1 mL of 0.2 M Na2CO3, and the absorbance was read in a microplate reader set at 405 nm. Blanks were prepared in the absence of the pancreatic α-amylase. […] Acarbose (from a stock solution in methanol) was used as the reference inhibitor. A minimum of three independent replications was carried out for each assay.

| Structure (SMILES) | inhibition at 10000 µM (versus controls with 15% MeOH) [%] | further results |
| --- | --- | --- |
| COc1cc(/C=C/c2ccc3c(c2)[C@@H](c2cc(OC)cc(OC)c2)[C@H](c2ccc(O)cc2)O3)cc(OC)c1 (relative stereo) [compound 8, pterostilbene-trans-dihydrodimer] | 28 | – |
| Oc1ccc([C@@H]2c3c(O)cc(O)cc3[C@H]3[C@H](c4ccc(O)cc4)c4c(O)cc(O)cc4[C@@H]23)cc1 [compound 7, pallidol] | 21 to 45 | – |
| Oc1ccc([C@@H]2Oc3ccc(/C=C/c4cc(O)cc(O)c4)cc3[C@H]2c2cc(O)cc(O)c2)cc1 [(R, R)-trans-δ-viniferin] | – | Hill cooperativity coefficient (n^H): 1.5; Ki: 43 µM |
| Oc1ccc([C@H]2Oc3ccc(/C=C/c4cc(O)cc(O)c4)cc3[C@@H]2c2cc(O)cc(O)c2)cc1 [(S, S)-trans-δ-viniferin] | – | Hill cooperativity coefficient (n^H): four; Ki: 58 µM |
| C[C@H]1O[C@H](O[C@H]2[C@H](O)[C@@H](O)[C@@H](O[C@H]3[C@H](O)[C@@H](O)C(O)O[C@@H]3CO)O[C@@H]2CO)[C@H](O)[C@@H](O)[C@@H]1N[C@H]1C=C(CO)[C@@H](O)[C@H](O)[C@H]1O (stereo partly shown) [acarbose, reference compound] | – | inhibition at 1000 µM (1 mM final concentration, versus controls with 15% MeOH): 86% |
| Oc1ccc(C=Cc2cc(O)cc3c2C(c2cc(O)cc(O)c2)C(c2ccc(O)cc2)O3)cc1 (stereo not drawn) [compound 6, Trans-ε-viniferin] | ~90 | – |

Continued, in another order:

| inhibition at 10000 µM (versus controls with 15% MeOH) [%] | Structure (SMILES) | further results |
| --- | --- | --- |
| 21 | COc1cc(/C=C/c2ccc(O)cc2)cc(OC)c1 [compound 2, pterostilbene] | – |
| ~90 | Oc1ccc(C2Oc3ccc(C=Cc4cc(O)cc(O)c4)cc3C2c2cc(O)cc(O)c2)cc1 (stereo not drawn) [compound 5, Trans-δ-viniferin] | – |
